# Source: patent US9381169B2, “Pharmaceutical composition and use of the pharmaceutical composition for the treatment, prophylaxis or prevention of neoplastic diseases in humans and animals” (UNIVERSIDADE BANDEIRANTE DE SÃO PAULO—ACADEMIA PAULISTA …, priority 2009, dated 2016)
# Read-outs that look alike come from different tables or passages of the source.
# Legend:
# [1] = tested on: polychromatic erythrocytes; conditions: Wistar rats; for Observed frequencies of polychromatic erythrocytes with micronuclei in 1000 polychromatic erythrocytes: single intraperitoneal dose, cyclophosphamide 190 μM/Kg, DM-1 8 hours before cyclophosphamide
# Description: We used animals of the Wistar strain, males and females, with approximately 90 days old and weighing between 250 and 300 grams, maintained with water and food “ad libitum” and in accordance with the rules and procedures regarding the use of laboratory animals. The animals were divided into four groups:
# Negative control group—6 animals treated with a single dose of 0.7% saline solution.
# Group treated with cyclophosphamide (positive control)—6 animals treated with a single dose of cyclophosphamide chemotherapy.
# In all tests was administered 1 mL of the compound of interest intraperitoneally. […] Cyclophosphamide was administered at a concentration of 190 μM/Kg. The compounds were administered separately. At the end of the experiment (24 and 48 hours), animals were euthanized by deep general anesthesia induced by a lethal dose of sodium tiopentabarbital (CRMV, 2008).
# This study allowed us to analyze the action of mutagenic compounds under study. Mutagenic compounds when administered in experimental animals cause changes in chromatin that can be identified by the formation of a mass within the nucleus called the micronucleus. The emergence of this mass is quantified and analyzed for their proportion to the capacity of a given drug or not to be mutagenic.
# For micronucleus study we used the technique reported by Ribeiro et al. (Environmental Mutagenesis. Ulbra Publisher. Canoas: 1st edition, 2003.) For the staining of slides was used the technique described by Rabello-Gay et al. Apud SILVA, J. C. of; SILVA, S. of C. Evaluation of possible genotoxic effects of Gergilim (Sesamum indicum L., 2003).
# In the test, the effect of the chemical agent is observed in anucleate polychromatic erythrocytes (ECPs), which have relatively short life span, so that it contains any micronucleus that was generated as a result of recent chromosomal damage. For the staining of slides was used Giemsa stain diluted in phosphate buffer at pH 6.8, in the ratio 1:10, for a period of 15 minutes. After staining, the slides were washed in distilled water to remove excess dye. To read the slides used an optical microscope and perform counting and analysis of 1000 polychromatic erythrocytes per slide, considering the frequency of micronucleated polychromatic erythrocytes.
# The analysis was performed with cells increases 40× and 100× for the visualization of general morphology of the smears negative control group (FIG. 22), the groups treated with the compound DM1 and their polychromatic erythrocytes (FIGS. 23, 24 and 25). 1000 cells were analyzed per animal for the groups treated with DM1, negative control and cyclophosphamide for a total of 40,000 cells. The photodocumentation polychromatic erythrocytes was obtained by digital AVsoft. The group treated with cyclophosphamide was the positive control of the technique (FIG. 27).
# The results were subjected to statistical analysis, the ANOVA test of variance followed by Tukey-Kramer multiple comparisons (parametric data) and the significance level of 5%, i.e., the probability P<0.05).
# [2] = tested on: B16F10 melanoma cells; experiment: Cell cycle phases and apoptosis of dorsal tumor cells (propidium iodide, FACSCalibur); assay type: in vivo, mice
# Experimental: The cells were then frozen and kept in liquid nitrogen. After incubation with propidium iodide, the analysis was performed on a FACSCalibur cytometer. The results were expressed as mean percentage of cells in different phases of the cell cycle, debris and necrosis, apoptosis (sub-G1), quiescent non-proliferating cells G0/G1, S phase—synthesis of genetic material and G2/M at the beginning of cell division.
# [3] = tested on: Ehrlich tumor; experiment: Macroscopic spleen volume, Ehrlich tumor; conditions: all experimental protocols with DM-1
# Experimental: (§6) We used 50 mice of the Balb-c strain, females and males, with approximately 25 g, aged approximately 6 to 8 weeks, with diet and water ad libitum, that were divided into 5 groups:
# The spleens of animals from all experimental groups were analyzed for the display of nodes and metastases.
# [4] = tested on: B16F10 melanoma; experiment: Tumor growth (dorsal tumor area), B16F10 melanoma; assay type: in vivo; conditions: C57Bl/6J mice
# Experimental: (§1) Groups of mice of the C57Bl/6J strain were injected subcutaneously dorsally with 5×10^4 B16F10 melanoma tumor cells under sterile conditions. The animals were observed every 72 hours and tumor growth monitored until the average diameter of […].
# Control group—10 animals with B16F10 melanoma tumor, which after the 11th day of tumor implantation, received daily intraperitoneal doses of saline 0.9%;
# (§2) Paclitaxel-treated group—10 animals with B16F10 melanoma tumor, which after the 11th day of tumor implantation, received intraperitoneal doses of paclitaxel chemotherapy in […] of treatment;
# (§3) After 14 days, the animals received implantation of B16F10 melanoma cells and received no treatment until the end of the experiment.
# (§4) Paclitaxel was administered at a concentration of 15 μM/Kg, via intraperitoneal slow infusion, the treatment regimens described in the literature on days 1, 5 and 10, after the 7th day of tumor implantation. The compounds were administered separately.
# [5] = tested on: B16F10 melanoma; experiment: Internal metastases, B16F10 melanoma; assay type: in vivo, mice
# Experimental: as §1, §2
# Group pre-treated with the DM-1 compound prior to the implant of B16F10 melanoma cells—10 animals were treated with daily doses of the compound DM-1 for 14 days before implantation of tumor cells. After 14 days, the animals received implantation of B16F10 melanoma cells and received no treatment until the end of the experiment.
# Group pre-treated with the DM-1 compound prior to the implant of B16F10 melanoma cells and post-treated with DM-1 compound—10 animals were treated with daily doses of the compound DM-1 for 14 days before implantation of tumor cells. After 14 days, the animals received implantation of B16F10 melanoma cells and continued to receive daily treatment with the compound DM-1 for another 14 days.
# (§5) The compounds were administered separately.
# [6] = tested on: B16F10 melanoma; experiment: Survival rate, B16F10 melanoma; assay type: in vivo, mice
# Experimental: as §1, §2, §3, §4
# [7] = Hematologic evaluation (erythrocytes, leukocytes, platelets), B16F10 melanoma; assay type: in vivo, mice; conditions: for platelet counts during treatment compared to the control group: B16F10 melanoma mice
# Experimental: as §5
# The blood of animals with B16F10 melanoma tumor was harvested in the 6th and 14th day during treatment with the compound DM-1 and prior to the inoculation of B16F10 cells. In the charts, collections for the day 6 were named 1A, while those relating to day 14 were named 2A. After implantation, tumor blood were collected in the second, sixth and tenth days of treatment (after treatment with DM-1) in all groups of animals, and these collections were named 1B and 2B and 3B, respectively.
# [8] = tested on: tumor cell lines; conditions: PCT/BR2007/000175 and PI0602640-0; cited from earlier work
# [9] = cited from earlier work
# [10] = tested on: Ehrlich tumor; conditions: Balb-c mice, intraperitoneal from day 7 after implant, DM-1 1.6 nM/kg daily, paclitaxel 15 μM/Kg, etoposide 3.73 mM/kg on days 1, 5, 10
# Description: as §6
# CONTROL GROUP—10 animals implanted with tumor, which after 7 days of application, received daily intraperitoneal doses of saline 0.9%;
# Paclitaxel-treated group—10 animals implanted with tumor, which after 7 days of application, received intraperitoneal doses of paclitaxel chemotherapy in the 1st, 5th and 10th days of treatment;
# Etoposide-treated group—10 animals implanted with tumor, which after 7 days of application, received intraperitoneal doses of etoposide chemotherapy in the 1st, 5th and 10th days of treatment; […]
# Tumor growth in mice was measured by the dimensions on the longitudinal and transverse abdominal cavity, with the aid of a digital caliper. […] The mean area (A), mass (M) and tumor burden (C) were calculated using the following equations, respectively: A=nπ2; L2×T=M/2 (where L is the measured longitudinal and transverse extent of the T waist circumference).
# [11] = tested on: Ehrlich tumor; experiment: Number of renal and splenic metastases, Ehrlich tumor; assay type: in vivo; conditions: Balb-c mice
# Experimental: As an experimental model of mammary adenocarcinoma, we used the Ehrlich tumor in mice of the Balb-c strain, with approximately 2 months of age and weighing between 20 to 25 grams. The maintenance of the tumor in vivo was performed by intraperitoneal administration of 10^7 cells every seven days.
# Paclitaxel and etoposide were administered at concentrations of 15 μM/Kg and 3.73 mM/kg, respectively, by intraperitoneal slow infusion in treatment regimens described in the literature on days 1, 5 and 10, after the 7th day of tumor implantation. The compounds were administered separately.
# [12] = group pre and post treated with DM-1
compound,measurement,setting,value
"O=P1(N(CCCl)CCCl)NCCCO1 (centres unmarked) [Cyclophosphamide, cyclophosphamide]",cells with micronuclei found in the group,[1]; bone marrow smears,more than 200 cells
same,Observed frequencies of polychromatic erythrocytes with micronuclei in 1000 polychromatic erythrocytes,"[1]; DM-1 140 μM/Kg, 24 Hours",36.5 ± 1.0
same,Observed frequencies of polychromatic erythrocytes with micronuclei in 1000 polychromatic erythrocytes,"[1]; DM-1 140 μM/Kg, 48 Hours",35.5 ± 1.0
same,frequency of micronucleated polychromatic erythrocytes in 1000 cells,[1]; positive control group,36 /1000
"COc1cc(C=CC(=O)C=Cc2ccc(O)c(OC)c2)ccc1[O-].[Na+] [DM-1, sodium 4-[5-(4-hydroxy-3-methoxy-phenyl)-3-oxo-penta-1,4-dienil]-2-methoxy-phenolate]",percentage of cells in sub-G1 (apoptotic) phase,[2]; [12],increased significantly
same,percentage of cells in sub-G1 (apoptotic) phase,[2]; group pre-treated with DM-1,increased significantly
same,proportion of quiescent cells in G0/G1 phase,[2]; protocols of treatment with DM-1,reduce
same,immunosuppression in animals with Ehrlich ascites tumor,[3],suppressed
same,"dorsal tumor area, average values","[4]; pre and post treated with DM-1 0.83 nM/kg daily, 14 days before and 14 days after B16F10 implant",7.3±1.3 cm^2
same,"dorsal tumor area, average values","[4]; pretreated with DM-1 0.83 nM/kg daily for 14 days before B16F10 implant, no later treatment",6.5±1.7 cm^2
same,formation of lung and liver metastases,[5]; [12],inhibition
same,formation of lung and liver metastases,[5]; group pre-treated with DM-1,inhibition
same,increase of survival rate,[6]; group pre- and post-treated with DM-1,30%
same,increase of survival rate,[6]; group pre-treated with DM-1,50%
same,platelet counts during treatment compared to the control group,[7],significant reductions
same,erythrocytes (anemia),[7]; mice treated with DM-1,does not induce anemia
same,Observed frequencies of polychromatic erythrocytes with micronuclei in 1000 polychromatic erythrocytes,"[1]; DM-1 140 μM/Kg, 24 Hours",2.4 ± 0.5
same,Observed frequencies of polychromatic erythrocytes with micronuclei in 1000 polychromatic erythrocytes,"[1]; DM-1 140 μM/Kg, 48 Hours",2.2 ± 0.5
same,micronuclei in bone marrow smears (in words),"[1]; DM-1 140 μM/Kg, alone or 8 hours before cyclophosphamide 190 μM/Kg",not found significant changes
same,antiproliferative activity,[8],significant
C[C@@H](CN1CC(=O)NC(=O)C1)N1CC(=O)NC(=O)C1 [Dexrazoxane],rates of cell damage,"[9]; as co-adjuvant: dexrazoxane with etoposide, amifostine with cisplatin or paclitaxel",> 45%
O=S(=O)(O)CCS [Mesna],antimutagenic action,[9]; in combination with paclitaxel,moderate
COc1cc([C@@H]2c3cc4c(cc3[C@@H](O[C@@H]3O[C@@H]5CO[C@@H](C)O[C@H]5[C@H](O)[C@H]3O)[C@H]3COC(=O)[C@H]23)OCO4)cc(OC)c1O [etoposide],median values of tumor area,[10],8.6±1.0 cm^2
same,decrease of metastases in kidney,[11],10%
same,decrease of metastases in spleen,[11],30%
"CC(=O)O[C@H]1C(=O)[C@@]2(C)[C@H]([C@H](OC(=O)c3ccccc3)[C@]3(O)C[C@H](OC(=O)[C@H](O)[C@@H](NC(=O)c4ccccc4)c4ccccc4)C(C)=C1C3(C)C)[C@]1(OC(C)=O)CO[C@@H]1C[C@@H]2O [paclitaxel, reference compound]",median values of tumor area,[10],11.4±1 cm^2
same,proportion of cells killed by necrosis,[2]; compared to control and DM-1 groups,significant increase
same,tumor area,"[4]; B16F10, treated after tumor implantation, paclitaxel 15 μM/Kg i.p., DM-1 0.83 nM/kg daily",9.4 cm^2
same,increase of survival rate,[6]; treated after tumor implantation,no significant changes
same,platelet counts during treatment compared to the control group,[7],increase
same,decrease of metastases in kidney,[11],30%
same,decrease of metastases in spleen,[11],50%
